“And” between values parts separate entries of the source, which are not always exact repeats. Equal entries are not always repeated. Values belong to the molecule of their own block, whether it stands above or below them.
What was measured:
[1] = in the absence of MSM
[2] = in vivo
Experimental: The ocular pharmacokinetic behavior of EDTA, when administered as a component of Formulation 1, was evaluated in rabbits over a period of five days. Two healthy male rabbits, each approximately 2.5 to 3 kg in body weight, were used for the study.
On day 1 of the study, one drop of Formulation 1 was topically instilled in each eye of both rabbits (four eyes total). No additional eye drops were administered during the course of the study. Samples of aqueous humor were extracted at 15 min, 30 min, 1 hr, 4 hrs, 3 days, and 5 days following administration (as indicated in the following table). Vitreous humor was extracted at 5 days following administration from all four eyes. The concentration of EDTA was measured in all the samples of aqueous humor and vitreous humor by HPLC analysis.
In the following in vivo experiment, the ocular pharmacokinetic behavior of EDTA, when administered with MSM as permeation enhancing penetrating agent, was evaluated in rabbits over a period of five days. Two healthy male rabbits, each approximately 2.5 to 3 Kg in body weight, were used for the study.
An eye drop formulation of the invention, was prepared as follows: High purity de-ionized (DI) water (500 ml) was filtered via a 0.2 micron filter. MSM (27 g), EDTA (13 g), and L-carnosine (5 g) were added to the filtered DI water, and mixed until visual transparency was achieved, indicating dissolution. The mixture was poured into 10 ml bottles each having a dropper cap. On a weight percent basis, the eye drops had the following composition: […]

[3] = EDTA pharmacokinetic study: 14C-EDTA in structures of the rat eye (Example 25)
Experimental: Objectives. Determine the amount of C-14 labeled EDTA that penetrates into the various structures of the rat eye (cornea, aqueous humor, lens, vitreous, and retina), using eye drops that contain MSM. Carry out a comparison of two different eye drop formulations that differed in their EDTA concentration.
8 μl of Eye Drop 1 was applied to the rats' eyes. […] The eyeballs were quickly washed 6 times in 5 ml of saline each time. Aqueous humor was aspirated from both eyes and dispensed in 50 μl of PBS. Cornea, lens, vitreous and retina from each eye were separated and placed in Eppendorf tubes containing H2O and 10N NaOH in the following ratio:
8 μl of Eye Drop 2 was applied to the rat eye. After 0.5, 2 and 4 hours, the rats were sacrificed and the experiment conducted in the same way as for Eye Drop 1.

[4] = not told
Text: (§1) The same study design and experimental setup was used as described in the above experiments.

[5] = @ 79° F.; cited from earlier work
[6] = test system: rat lens organ culture; test: Oxidation-induced toxicity in rat lens organ culture (Example 26); format: cell-based; conditions: 7 days
Text: Materials. […] All cell culture medium components were from Invitrogen. Animals. […] Lens Culture. The rat lenses were dissected and washed with 1% penicillin/streptomycin in sterile PBS. […] The lenses were visualized under a Nikon Eclipse 200 and photographs were taken using a Multidimensional Imaging System. [table] Experimental Procedure. 1. Sacrificed seven rats, removed the eyeballs as soon as possible, and put them into a tube containing PBS with 0.1% gentamicin. 2. Dissected the lenses immediately and washed with PBS. 3. […] Each treatment was performed in 2 wells. Final concentrations for the six treatments were as follows: […] After 7 days of lens culture, took photographs and determined level of light transparency through the lenses.

[7] = test system: Human lens epithelial cells (HLEC); test: Cell viability following oxidation-induced toxicity in human lens epithelial cells (Example 27); format: cell-based; conditions: oxidants, 16 hrs; 4 mM MSM, 0.5 mM EDTA
Experimental: Materials. […] All cell culture medium components were from Invitrogen. Cell Culture and Treatment. […] Cell Viability. Cell survival was determined by Trypan Blue staining and counting with a hemocytometer. Dead cells stain blue, while live cells exclude Trypan Blue. Cell viability is represented as the number of live cells divided by the total number of cells, expressed as a percentage. [[[…]]] Experimental Procedure. 1. Seeded 0.5×10^5/ml of HLEC (Passage 5) into three 12-well plates, incubated at 37° C. for overnight. 2. […] Added the oxidation reagents and MSM and/or EDTA to the proper wells. […] Ferrous ammonium sulfate (FAS) 10 μM, ADP 100 μM, H2O2 100 μM • Fenton': FAS 10 μM, ADP 100 μM, H2O2 100 μM • Ferric Chloride: […]

[8] = 54 mg MSM/ml
Text: as §1

[9] = 5 days after one drop of Formulation 1, per rabbit eye

- amount present in the aqueous humor [1]: very little
- concentration at 15 min ([2]; male, rabbit, aqueous humor, topical, 1 drop of Formulation 1 per eye, Concentration of EDTA, aqueous humor, 15 min after one drop of Formulation 1, per rabbit eye, HPLC): 1300 ng/mL
- concentration at 30 min ([2]; male, rabbit, aqueous humor, topical, 1 drop of Formulation 1 per eye, Concentration of EDTA, aqueous humor, 30 min after one drop of Formulation 1, per rabbit eye): 10700 ng/mL
- concentration at 1 hr ([2]; male, rabbit, aqueous humor, topical, 1 drop of Formulation 1 per eye, Concentration of EDTA, aqueous humor, 1 hr after one drop of Formulation 1, per rabbit eye): 5300 ng/mL
- concentration at 4 hrs ([2]; male, rabbit, aqueous humor, topical, 1 drop of Formulation 1 per eye, Concentration of EDTA, aqueous humor, 4 hrs after one drop of Formulation 1, per rabbit eye): 900 ng/mL
- concentration at 3 days ([2]; male, rabbit, aqueous humor, topical, 1 drop of Formulation 1 per eye, Concentration of EDTA, aqueous humor, 3 days after one drop of Formulation 1, per rabbit eye): 500 ng/mL
- concentration at 5 days ([2]; male, rabbit, aqueous humor, topical, 1 drop of Formulation 1 per eye, Concentration of EDTA, aqueous humor, 5 days after one drop of Formulation 1, per rabbit eye): 600 ng/mL
- concentration at 30 min ([2]; male, rabbit, aqueous humor, topical, 1 drop of Formulation 1 per eye, concentration of EDTA in aqueous humor, 30 minutes following administration of Formulation 1): 10700 ng/mL
- concentration at 5 days ([2]; male, rabbit, vitreous humor, topical, 1 drop of Formulation 1 per eye, Concentration of EDTA, vitreous humor, 5 days after one drop of Formulation 1, per rabbit eye): 600 ng/mL
Structure (SMILES): O=C(O)CN(CCN(CC(=O)O)CC(=O)O)CC(=O)O [EDTA, ethylenediamine tetraacetic acid]
- Concentration of EDTA, aqueous humor ([2]; 3 days after one drop of Formulation 1, per rabbit eye): 0.4 micrograms per milliliter and 0.7 micrograms per milliliter
- Concentration of EDTA, aqueous humor [2, 9]: 0.5 micrograms per milliliter and 0.4 micrograms per milliliter
- Concentration of EDTA, vitreous humor [2, 9]: 0.5 micrograms per milliliter and 0.7 micrograms per milliliter
- dose dependency of nanograms of EDTA in eye structures ([3]; Eye Drop 1 (60.5 mM EDTA) versus Eye Drop 2 (12.5 mM EDTA)): Dose dependency was observed, particularly in the aqueous humor, the cornea, and the lens
- distribution among eye structures ([3]; Eye Drop 1, two-hour time point): The majority of the EDTA was found in the aqueous humor

- increase of permeation over control [4]: about 2.5%
Structure (SMILES): NCCC(=O)N[C@@H](Cc1cnc[nH]1)C(=O)O [L-carnosine]

Structure (SMILES): CS(C)(=O)=O [MSM, methylsulfonylmethane]
- water solubility [5]: 34 % w/v
- Light transmission through the lens, of control ([6]; 1 mM ascorbate + 100 μM hydrogen peroxide, oxidant alone 32%, 4 mM MSM, 0.5 mM EDTA): 57%
- Light transmission through the lens, of untreated control ([6]; 50 mM glucose, glucose alone 45%, 4 mM MSM, 0.5 mM EDTA): 68%
- lens opacification in photographs of the lens culture ([6]; glucose or ascorbate plus hydrogen peroxide): mitigated lens opacification by both oxidants
- percent cell viability (Trypan Blue) [7]: increased the percent cell viability for all oxidants

- effect of MSM on the diffusion rate [8]: no effect
Structure (SMILES): N[C@@H](CCC(=O)N[C@@H](CS)C(=O)NCC(=O)O)C(=O)O [glutathione]
